Marks after values point to notes of the source that are not given here.
Assays:
[1] = tested on: formalin-induced tonic inflammatory nociceptive behaviour; assay: Formalin test, rat (weighted behavioural scoring); assay type: in vivo
Procedure: The formalin test is a chemically-induced tonic pain model in which biphasic changes of nociceptive behaviour are assessed and spinal/supraspinal plasticity of nociception is considered as a molecular basis for neuropathic pain particularly during the second (=late) phase of the test, during which most clinically used drugs against neuropathic pain are active.
The compound was tested for anti-nociceptive properties by use of the weighted behavioural scoring method: Freely moving animals underwent observational assessment of the position of the left hind paw according to a rating score scaled 0-3 before and 10, 20, 30 and 40 min after injection of 0.05 ml of sterile 2.5% formalin under the skin on the dorsal surface of the paw.

[2] = tested on: spontaneous pain induced by unilateral chronic constriction injury; assay: Chronic constriction injury (CCI, Bennett-model), spontaneous pain; assay type: in vivo, rat; conditions: 5-40 mg/kg i.p.
Procedure: (§1) The effectiveness of harkoseride in reducing spontaneous chronic pain, mechanical allodynia, and thermal hyperalgesia was tested using the chronic constriction injury (CCI) model of peripheral neuropathy, one of the best characterised in vivo animal models used to study chronic pain due to peripheral nerve injury. In this model, loose ligatures are placed around the sciatic nerve, which produces axonal swelling and a partial deafferentation manifested as a significant but incomplete loss of axons in the distal portion of the peripheral nerve. One of the prominent behaviours seen following sciatic nerve ligation is the appearance of hind paw guarding, thought to be an indication of an ongoing spontaneous chronic pain. Support for this idea is derived from reports of increased spinal cord neural activity, and increased spontaneous neuronal discharge in spinothalamic tract neurons and in the ventrobasal thalamus in the absence of overt peripheral stimulation. In addition to the appearance of spontaneous pain behaviours, several abnormalities in stimulus evoked pain occur as a result of CCI, including thermal hyperalgesia and mechanical allodynia. […]
Spontaneous pain (ongoing pain without an apparent external stimulus) of the ligated paw was assessed for 5 min following a 10 min acclimation period by use of a rating score (weighted behaviour score scaled 0-5).

[3] = tested on: chronic constriction injury-induced thermal hyperalgesia; assay: Chronic constriction injury (CCI) model, thermal hyperalgesia; assay type: in vivo, rat; conditions: 5-40 mg/kg i.p.
Procedure: as §1
Thermal hyperalgesia was assessed by means of withdrawal latency in response to radiant heat applied to the subplantar surface of the ligated rat hind paw. […]

[4] = tested on: mechanical allodynia induced by unilateral nerve ligation; assay: Chronic constriction injury (CCI) model, mechanical allodynia (Von Frey); assay type: in vivo, rat; conditions: 5-40 mg/kg i.p.
Procedure: as §1
Mechanical sensitivity and allodynia of the ligated rat hind paw was quantified by brisk foot withdrawal in response to normally innocuous mechanical stimuli as described previously. […]

[5] = tested on: acute spinal thermal nociception; assay: Tail flick test, rat; assay type: in vivo
Excerpt: Harkoseride was additionally tested for potential activity in acute spinal thermal nociception using the tail flick test. In this model of acute thermal spinal/reflex hyperalgesia radiant heat is applied to the animal's tail approximately 2 cm from the tip and time latency for withdrawal reaction is automatically assessed by an algometer, a defined maximal stimulus time prevents tissue damage. This test is widely used as an assay for the anti-nociceptive efficacy of pharmacological agents and is highly predictive of acute analgesic efficacy in humans.
Results for 20 and 40 mg/kg harkoseride i.p are shown in table 5 [percent anti-nociception, calculated as [{(post-drug latency)−(pre-drug-latency)}/{(max. latency)−(pre-drug latency)}×100]±SEM, n=12/group]. A baseline or pre-drug tail-flick latency was determined by averaging 5 consecutive measurements taken 2 minutes apart. Vehicle (sterile water 0.04 ml/10 g body weight) or harkoseride were then administered and tail flick latencies recorded at 10-minute intervals for the next 60 minutes.

[6] = tested on: Carrageenan-induced mechanical hyperalgesia; assay: Carrageenan-induced mechanical hyperalgesia, paw pressure (Randall-Sellito) test; assay type: in vivo, rats; conditions: for Effect on Carrageenan-induced mechanical hyperalgesia: all doses tested (10, 20, 40 mg/kg i.p.)
Procedure: Carrageenan-induced mechanical hvderalcesia in rats was induced by subplantar injection of a 0.1 ml of a 2% carrageenan suspension and measured 3 h afterwards by the paw pressure (Randall-Sellito) test.
(§2) Drugs and experimental design: SPM 927 and GBP were suspended in 1% methylcellulose and administered i.p. at doses of 10 mg/kg, 20 mg/kg and 40 mg/kg. Pre-treatment time was 30 min before pain measurement. One group of animals served as controls and consequently received an injection of solvent (10 ml/kg) and another group of animals received a reference compound (Carrageenan test: 10 mg/kg indomethacin; Formalin test: 10 mg/kg morphine). Each compound was tested in a separate experiment and each experiment included a control and a reference group. 10 rats per group were used in the Carrageenan test and 6 mice per group in the formalin test.

[7] = tested on: formalin-induced nociception (paw licking); assay: Subchronic inflammatory nociception in mice (formalin test); assay type: in vivo; conditions: for Nociceptive response induced by formalin: 10, 20, 40 mg/kg i.p.; for nociceptive threshold [s]: late phase (20-30 min), 10 mg/kg i.p.
Procedure: Subchronic inflammatory nocicoetion in mice was induced by the subplantar injection of formalin (0.02 ml of a 5% solution). Nociceptive behaviour (paw licking) was measured and quantified between 0 and 5 min (acute pain) and between 20 and 30 min (subchronic inflammatory pain) after formalin.
as §2

[8] = tested on: neuropathic pain (CHUNG), tactile stimulation; assay: Neuropathic pain (CHUNG) test, tactile stimulation on lesioned paw; assay type: in vivo, rat; conditions: tactile and thermal stimulation
Excerpt: The following Tables 8 and 9 show the effects of harkoseride (hereinafter referred to as SPM 927), carbamazepine, levetiracetam, gabapentin and morphine in the neuropathic pain (CHUNG) test in the rat. Eight (8) rats per group were used.

With `COC[C@@H](NC(C)=O)C(=O)NCc1ccccc1` [SPM 927, (R)-2-Acetamido-N-benzyl-3-methoxypropionamide] the “Formalin-induced tonic inflammatory nociceptive behaviour” value ([1]; i.p. just prior to formalin injection) was “dose dependant reduction”, the “Efficacy in the late phase of the rat formalin test” value ([1]; late phase) was “Significant and dose dependent efficacy” and the “Level of spontaneous pain induced by unilateral chronic constriction injury” value [2] was “did not change”. The “Chronic constriction injury-induced thermal hyperalgesia” value [3] was “dose dependently reduced”, the “Intensity of mechanical allodynia induced by unilateral nerve ligation” value [4] was “dose dependently reduced” and the “Effect on the latency of the tail flick reflex” value ([5]; 20 and 40 mg/kg i.p.) was “little or no effect”. For the same compound, the “Anti-nociceptive effect detectable in the tail-flick test” value ([5]; rat, in vivo) was “no anti-nociceptive effect”, the “Effect on Carrageenan-induced mechanical hyperalgesia” value [6] was “full reversal” and the “Antinociceptive effect relative to reference compound” value ([6]; vs 10 mg/kg indomethacin) was “comparable to that of the reference compound Indomethacin”. The “Nociceptive response induced by formalin” value [7] was “dose dependently suppressed”, the “Efficacy on formalin-induced nociception, similar to that of morphine” value ([7]; mouse, in vivo) was “near complete reversal” and the “Potency compared with the reference compounds in the CHUNG test” value [8] was “minimum comparable, but usually more potent than the reference compounds”.
In the case of `NCC1(CC(=O)O)CCCCC1` [GBP, gabapentin, reference compound], the “Effect on Carrageenan-induced mechanical hyperalgesia” value [6] is reported as “no significant effect” and the “Nociceptive response induced by formalin” value [7] is reported as “slightly but not significantly inhibited”.
`CN1CC[C@]23c4c5ccc(O)c4O[C@H]2[C@@H](O)C=C[C@H]3[C@H]1C5` [Morphine, morphine] was tested, and the “nociceptive threshold [s]” value ([7]; GBP experiment) was 0 ± 0^a s and the “nociceptive threshold [s]” value ([7]; SPM 927 experiment) was 10 ± 8^a s.
